Data on 2 molecules can be found in ChEMBL document CHEMBL2429854, “Influences of hydrocarbon linkers on the receptor binding affinities of gonadotropin-releasing hormone peptides” (Bioorg Med Chem Lett, 2013).

In experiment [1] the target is T1, Gonadotropin-releasing hormone receptor (Homo sapiens) (UniProt P30968).
T1 sequence (whole entry): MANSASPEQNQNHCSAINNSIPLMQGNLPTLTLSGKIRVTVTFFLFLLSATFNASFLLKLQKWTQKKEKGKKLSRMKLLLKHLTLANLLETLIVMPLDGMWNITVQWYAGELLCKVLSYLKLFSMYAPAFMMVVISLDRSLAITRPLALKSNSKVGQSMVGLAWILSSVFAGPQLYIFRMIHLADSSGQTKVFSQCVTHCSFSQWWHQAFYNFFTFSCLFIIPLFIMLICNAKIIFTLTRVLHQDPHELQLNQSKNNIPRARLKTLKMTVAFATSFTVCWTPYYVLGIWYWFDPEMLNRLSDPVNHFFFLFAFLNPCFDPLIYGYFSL
As to the kind of experiment: Displacement of [111In]-DOTA-Aun-(D-Lys6-GnRH) from human GnRH receptor after 3 hrs by gamma-counting. Particulars: concentration not given here.

Experiment [2] concerns the target T2, Gonadotropin-releasing hormone receptor (Homo sapiens, UniProt P30968).
T2 sequence (P30968 whole entry): T1 sequence (whole entry)
In words: Displacement of [125I]-[DTrp6]-LH-RH from human GnRH receptor after 3 hrs by gamma counting.

As usually defined, the inhibition is the drop in the measured response relative to a control, in per cent. Read a high inhibition as a response far below the control. Take `CC(C)C[C@H](NC(=O)[C@@H](CCCCNC(=O)CCCCCCCCCCNC(=O)CN1CCN(CC(=O)O)CCN(CC(=O)O)CCN(CC(=O)O)CC1)NC(=O)[C@H](Cc1ccc(O)cc1)NC(=O)[C@H](CO)NC(=O)[C@H](Cc1c[nH]c2ccccc12)NC(=O)[C@H](Cc1cnc[nH]1)NC(=O)[C@@H]1CCC(=O)N1)C(=O)N[C@@H](CCCNC(=N)N)C(=O)N1CCC[C@H]1C(=O)NCC(N)=O`: in experiment [1], the inhibition stood at 85%.

The term IC50 denotes the concentration that inhibits the measured activity by half. For the molecule `CC(C)C[C@H](NC(=O)[C@@H](CCCCNC(=O)CCCNC(=O)CN1CCN(CC(=O)O)CCN(CC(=O)O)CCN(CC(=O)O)CC1)NC(=O)[C@H](Cc1ccc(O)cc1)NC(=O)[C@H](CO)NC(=O)[C@H](Cc1c[nH]c2ccccc12)NC(=O)[C@H](Cc1cnc[nH]1)NC(=O)[C@@H]1CCC(=O)N1)C(=O)N[C@@H](CCCN=C(N)N)C(=O)N1CCC[C@H]1C(=O)NCC(N)=O`, the IC50 in experiment [2] is 134 nM.
